In US12419306B2, “Mesostigmata mite control composition” (MEIJI SEIKA PHARMA CO., LTD., priority 2018, dated 2025):

What was measured:
Type in all cases: in vivo
[1] = tested on: red mites (Dermanyssus gallinae); experiment: Test Example 1: Control Effect 1 on Red Mites, Pasteur pipette contact test, 72 hours; conditions: for Ratio of dead and affected mites: 72 hours, unfed adult red mites
Excerpt: The tip of a Pasteur pipette was sealed with Parafilm, and a methanol solution of the compound A, or each pesticide (another pesticide) (single agent) described in the left columns of Tables 2, 4, and 6 described below, or a mixture (mixed agent) of the compound A and each pesticide described in the left column of Tables 2, 4, and 6 described below at a predetermined concentration was poured into the pipette through an upper portion thereof. One minute later, the Parafilm at the tip was detached, and the liquid agent was discharged. After the pipette was air dried, absorbent cotton was inserted to an upper end of the pipette, and 20 unfed adult red mites (Dermanyssus gallinae) were released into the pipette. After the tip was sealed with Hemato-Seal, the pipette was stored in the dark in an incubator at a temperature of 27 to 28° C. and a humidity of 50 to 60%. […] Then, the ratio (%) of dead and affected mites was calculated according to the following formula. The ratio (%) of dead and affected mites={(the number of dead mites+the number of affected mites)/(the number of survived mites+the number of affected mites+the number of dead mites)}×100

[2] = tested on: red mites (Dermanyssus gallinae); experiment: Test Example 3: Control Effect 3 on Red Mites, Pasteur pipette contact test, 3 hours; conditions: unfed adult red mites
Excerpt: The tip of a Pasteur pipette was sealed with Parafilm, and a methanol solution of the compound represented by the formula (11), the compound represented by the formula (12), or flupyrimin (single agent), or a mixture (mixed agents) of the compound represented by the formula (11) or the compound represented by the formula (12) and flupyrimin at a predetermined concentration was poured into the pipette from an upper portion thereof. One minute later, the Parafilm at the tip was removed, and the liquid agent was discharged. After the pipette was air dried, absorbent cotton was inserted to an upper end of the pipette, and 20 unfed adult red mites (Dermanyssus gallinae) were released into the pipette. After the tip was sealed with Hemato-Seal, the pipette was stored in the dark in an incubator at a temperature of 27 to 28° C. and a humidity of 50 to 60%. After 3 hours had passed since the treatment, the mites were observed under a stereomicroscope to determine whether the mites were dead or alive and whether the mites were affected. Then, the ratio (%) of dead and affected mites was calculated according to the following formula. The ratio (%) of dead and affected mites={(the number of dead mites+the number of affected mites)/(the number of survived mites+the number of affected mites+the number of dead mites)}×100

[3] = tested on: red mites (Dermanyssus gallinae); experiment: Test Example 2: Control Effect 2 on Red Mites, Pasteur pipette contact test, 3 hours; conditions: unfed adult red mites
Method: One minute later, the Parafilm at the tip was detached, and the liquid agent was discharged. […] Then, the ratio (%) of dead and affected mites was calculated according to the following formula.

[4] = Dermanyssus gallinae, 72 h, read-out: Ratio of dead and affected mites

## CNC(=O)Oc1cccc2c1OC(C)(C)O2 [Bendiocarb, bendiocarb]
[1]; [4]
  pest or weed control at 50 ppm: 30.5%

## CNC(=O)Oc1cccc2ccccc12 [Carbaryl, carbaryl]
[1]; [4]
  pest or weed control at 50 ppm: 46.6%

## CC1(C)[C@H](C(=O)O[C@H](C#N)c2cccc(Oc3ccccc3)c2)[C@@H]1C=C(Br)Br [Deltamethrin, deltamethrin]
[1]; [4]
  pest or weed control at 50 ppm: 75.8%

## COP(=S)(OC)Oc1ccc([N+](=O)[O-])c(C)c1 [Fenitrothion, fenitrothion]
[1]; [4]
  pest or weed control at 200 ppm: 71.8%

## CCC(C)c1ccccc1OC(=O)NC (stereo not drawn) [Fenobucarb, fenobucarb]
[1]; [4]
  pest or weed control at 50 ppm: 43.5%

## O=C(N=c1ccccn1Cc1ccc(Cl)nc1)C(F)(F)F [Flupyrimin, flupyrimin]
[1]; single agent 50 ppm
  Ratio of dead and affected mites: 65.3%
[1]; single agent 200 ppm
  Ratio of dead and affected mites: 58.6%
[1]; single agent 1000 ppm
  Ratio of dead and affected mites: 83.2%
[1]; single agent 5000 ppm
  Ratio of dead and affected mites: 75.0%
[2]; single agent 50 ppm
  Ratio of dead and affected mites: 48.8%
[2]; single agent 200 ppm
  Ratio of dead and affected mites: 48.5%
[2]; single agent 1000 ppm
  Ratio of dead and affected mites: 40.9%

## CCc1nc2ccc(F)c(F)c2c(OC(=O)C2CC2)c1C [Formula (11)]
[2]; single agent 10 ppm
  Ratio of dead and affected mites: 53.4%
[2]; single agent 20 ppm
  Ratio of dead and affected mites: 62.9%
[3]; single agent 5 ppm
  Ratio of dead and affected mites: 53.7%
[3]; single agent 10 ppm
  Ratio of dead and affected mites: 53.4%
[3]; single agent 20 ppm
  Ratio of dead and affected mites: 62.9%

## CCc1nc2ccc(F)c(F)c2c(OC(=O)OC)c1C [Formula (12)]
[2]; single agent 20 ppm
  Ratio of dead and affected mites: 65.5%
[3]; single agent 10 ppm
  Ratio of dead and affected mites: 50.0%
[3]; single agent 20 ppm
  Ratio of dead and affected mites: 65.5%

## COC(=O)Oc1c(C)c(C)nc2ccc(F)c(F)c12 [Formula (13)]
[3]; single agent 10 ppm
  Ratio of dead and affected mites: 89.9%

## CC1(C)C(C=C(Cl)Cl)C1C(=O)OCc1cccc(Oc2ccccc2)c1 (stereo not drawn) [Permethrin, permethrin]
[1]; [4]
  pest or weed control at 50 ppm: 49.6%

## CC(C)=CC1C(C(=O)OCc2cccc(Oc3ccccc3)c2)C1(C)C (stereo not drawn) [Phenothrin, phenothrin]
[1]; [4]
  pest or weed control at 500 ppm: 65.2%

## CNC(=O)Oc1ccccc1OC(C)C [Propoxur, propoxur]
[1]; [4]
  pest or weed control at 200 ppm: 77.9%

## CC(C)=CC1C(C(=O)OCN2C(=O)C3=C(CCCC3)C2=O)C1(C)C (stereo not drawn) [Tetramethrin, tetramethrin (phthalthrin)]
[1]; [4]
  pest or weed control at 10 ppm: 39.8%

## COP(=O)(OC)C(O)C(Cl)(Cl)Cl (stereo not drawn) [Trichlorfon, trichlorfon]
[1]; [4]
  pest or weed control at 200 ppm: 84.7%

## abamectin
[1]; single agent 50 ppm
  Ratio of dead and affected mites: 69.9%
